The text below walks through data of US10632170B2, “Administration of compstatin to an individual for the treatment of a tumor” (The Trustees of the University of Pennsylvania, priority 2008, dated 2020).

For data set [1] the following is noted: according to the manufacturer; cited from earlier work.
In data set [2] the test system is TC-1 tumors. Description: TC-1 syngeneic tumor growth in mice (tumor volumes). The class given is in vivo, mouse.
Protocol: To establish TC-1 tumors, male and female mice 6-16 weeks of age were anesthetized and injected subcutaneously (s.c.) with 1×10^5 TC-1 cells in the right or left rear flank. […] Beginning about 2 weeks after cell injection, mice were anesthetized, and their tumors were measured with calipers every 2-4 days until the tumor size required sacrificing of the animals. Measurements were taken in two dimensions (length and width) because the depth of the tumor was difficult to assess in live animals. The depth of the tumor was therefore estimated based on the smaller (width) measurement, and the volume of the tumor was calculated using the formula: (length×width×depth)±2. One hour prior to sacrifice, 5-bromo-2′-deoxyuridine (BrdU; Sigma) was injected intraperitoneally (i.p.) into mice at a single dose of 50 mg/kg for further assessment of tumor or immune cell proliferation. […] Excised tumors were measured in three dimensions to obtain an accurate volume and then weighed. Tumors and spleens were cut into sections for cell isolation, histologic examination, or freezing.
Control mice in the experiments utilizing C5aR antagonist or Taxol were injected s.c., or i.p., respectively, with ˜400 μl PBS alone, or in some cases, s.c. with the cyclic hexapeptide AcF[OPdChaA(d)R] […] The pattern of the administration of this control peptide to mice followed that described for the C5aR antagonist.
The effect of genotype or treatment on tumor growth (FIGS. 1-4) was analyzed with two-way analysis of variance (ANOVA) using GraphPad Prism (GraphPad Software, Inc.); the Bonferroni post-test correction was applied to control for the occurrence of false-positives. […] A p value equal to or less than 0.05 was considered significant.
The test system of data set [3] is MDSCs obtained from tumors and spleens. The data set is described as follows: CD11b expression in MDSCs after stimulation in vitro (flow cytometry). Conditions: for CD11b upregulation in C5aR-deficient MDSCs: FIG. 6A-6D. In kind it is cell-based, mouse. As to the method: Single-cell suspensions were pre-incubated with anti-mouse CD16/CD32 mAb (Fc block, 2.4G2; BD Pharmingen) to block Fcγ receptors, then incubated with primary antibody. Fluorochrome-conjugated mAbs against mouse CD3 (17A2), CD4 (L3T4), CD8 (53-6.7), CD11b (M1/70), CD25 (PC61), CD45 (30-F11), CD69 (H1.2F3) and Gr-1 (RB6-8C5), (all from BD Biosciences) were used according to the manufacturer's instructions. In order to determine C5aR cell-surface expression, cells were sequentially incubated with rabbit polyclonal anti-mouse C5aR (C1150-32, BD Biosciences) or rabbit isotype (BD Pharmingen, 550875) and FITC-conjugated anti-rabbit IgG (F0112, R&D Systems), or with rat anti-mouse C5aR (mAb clone 20/70 Hycult biotechnology b.v., distributor-Cell science Inc.) or rat isotype (BD Pharmingen, 553928) followed by FITC-conjugated anti-rat IgG (Zymed-Invitrogen). For some experiments cells were permeabilized with the use of fixation and perm/wash buffers (BD Biosciences) prior to C5aR staining. Stained cells were subjected to six-color flow cytometry on a FACSCanto flow cytometer (BD Biosciences) using FlowJo software (Tree Star Inc.).
The migration of PMN-MDSCs to tumors requires crossing of the endothelial barrier by MDSCs. Leukocytes, in order to leave the circulation and migrate to interstitial tissues, require the interaction of their integrins with adhesion molecules on endothelial cells. It was hypothesized that the same mechanisms apply to MDSCs migrating to tumor tissue. Since CD11b is the αm subunit of integrin CR3, which interacts with ICAM-1 expressed on endothelial cells during leukocyte extravasation, the changes in CD11b expression were evaluated in MDSCs obtained from tumors and spleens after C5a stimulation in vitro.
For orientation: Flow cytometry measures light scatter and fluorescence of single cells or particles in a stream.

In data set [4] the test system is MDSCs from spleens and tumors. Description: ROS and RNS production in MDSCs after stimulation in vitro (H2DCFDA). The class given is cell-based, mouse. Conditions: for ROS and RNS production in spleen MDSCs of C5aR-deficient mice: MDSCs from spleens of C5aR-deficient mice; for ROS and RNS production in tumor-associated MDSCs: either subpopulation, data not shown. As to the method: The oxidation sensitive dye 2′-7′-dichloro dihydrofluorescein diacetate (H2DCFDA) (Molecular Probes) was used for the measurement of ROS and RNS production in cells isolated from tumors or spleens. The excised tumors and spleens were mechanically disintegrated to obtain a single-cell suspension. Cells resuspended in DMEM were incubated with 2 μM of dye at 37° C. for 15 min. After washing with PBS, cells were stained for flow cytometry analysis as described above. MDSCs were distinguished from other cells present in the cell suspension as a viable CD45^+CD11b^+Gr-1^+ cell population, and the fluorescence intensity was estimated in the channel suitable for FITC according to the manufacturer's instruction. The amounts of ROS and RNS in cells were proportional to the intensity of fluorescence and were expressed as median fluorescence for gated populations. For some experiments, in addition to incubation with H2DCFDA, freshly isolated cells were simultaneously stimulated by 1, 10, or 100 nM of recombinant mouse C5a expressed as previously described (Strey et al., 2003, J. Exp. Med. 198:913-923) or 1 μM of phorbol myristate acetate (PMA; Sigma-Aldrich). Preliminary experiments have shown that stimulation of cells with 10 nM C5a induced the highest induction of ROS and RNS production.
To further verify the results obtained from these in vivo studies, MDSCs from spleens and tumors of wild-type mice were stimulated to produce ROS and RNS by incubating them with various concentrations of C5a in vitro. MDSCs isolated from C5aR-deficient mice were used as an additional control for these experiments. […] It was concluded that the unresponsiveness of tumor-associated MDSCs to in vitro C5a stimulation was a result of the strong stimulation of these cells for ROS and RNS production in vivo in the tumor microenvironment and the exhaustion of this system; therefore, further stimulation of these cells in vitro failed.

In data set [5] the target is T1, C5aR (Mus musculus, UniProt P30993).
T1 construct: endogenous in cells; host or cells: host cells of living C57BL/6J mice bearing TC-1 tumours (in vivo)
T1 sequence (P30993 1-351): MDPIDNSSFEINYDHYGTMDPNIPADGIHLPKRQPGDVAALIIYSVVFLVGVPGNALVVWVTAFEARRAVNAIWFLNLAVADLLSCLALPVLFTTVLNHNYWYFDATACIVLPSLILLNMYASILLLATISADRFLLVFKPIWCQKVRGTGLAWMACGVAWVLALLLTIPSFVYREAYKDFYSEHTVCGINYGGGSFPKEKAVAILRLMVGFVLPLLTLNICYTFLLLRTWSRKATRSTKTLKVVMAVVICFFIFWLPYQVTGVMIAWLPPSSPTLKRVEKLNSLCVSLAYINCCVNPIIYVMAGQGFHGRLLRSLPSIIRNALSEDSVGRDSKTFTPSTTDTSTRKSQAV
Conditions: cited from earlier work.

Data set [6] deals with arginase-1. The data set is described as follows: Arginase-1 expression in tumor whole-cell extracts (immunoblot). Conditions: C5aR antagonist-treated vs control mice; without reaching statistical difference; FIG. 7F. The class given is in vivo, mouse. The protocol:
Whole-cell extracts were prepared from tumor tissue mechanically disrupted in lysis buffer (20 mM HEPES, pH 7.4, 0.2 mM EDTA, 420 mM NaCl, 1.5 mM MgCl2, 20% glycerol) treated with protease and phosphatase inhibitors (1 mM DTT, 0.1 mM PMSF, 0.1 mM Na3VO4, 1 mM NaF, 1 mM β-glycerophosphate, and 2 μg/ml each of antipain dihydrochloride, aprotinin, bestatin and leupeptin). For each protein sample, 40 μg was electrophoresed on a 12% polyacrylamide gel and transferred to a PVDF membrane. Membranes were incubated overnight at 4° C. with mouse monoclonal arginase I (8C9) antibody (Santa Cruz Biotechnology) or mouse monoclonal β-actin (AC-15) antibody (Abeam). Primary antibody binding was detected using HRP-conjugated anti-mouse antibody (Bio-Rad Laboratories, Inc.) and chemiluminescence (Amersham Pharmacia Biotech, Inc.). Protein loading was normalized according to the abundance of β-actin, with Ponceau S-stained membranes used for verification. Protein expression was quantified by densitometry using ImageQuant software (Molecular Dynamics).
A general note: Immunoblotting shows a protein as a band on a membrane.

Data set [7] relates to TC-1 tumors. Description: Immune cell infiltration of tumors (immunofluorescent staining for CD8, CD11b). In kind it is in vivo, mouse. As to the method:
The deposition of C3 cleavage products in tumor tissue was detected using a rat anti-mouse C3 mAb (clone 2/11), as described previously (Mastellos et al, 2004, Mol. Immunol. 40:1213-1221). […] Therefore, the positive reactivity in the tissue is thought to be associated with the activation of the complement cascade and C3 cleavage. C1q and MBL deposition were evaluated with the use of a rat anti-mouse C1q mAb (Abeam, Inc.) and a polyclonal goat anti-mouse MBL (Santa Cruz Biotechnology, Inc.), respectively. These sections were co-stained with the use of biotinylated anti-mouse CD31 to visualize tumor vasculature. CD8^+ T cell and myeloid-origin cell infiltrations of tumors were analyzed using anti-mouse CD8 and anti-mouse CD11b, respectively. Isotypic rat IgGs were used as a negative control. Anti-CD31, anti-CD8 and anti-CD11b and isotype controls were purchased from BD Biosciences. Primary antibodies bound in tissue were detected with donkey anti-rat or anti-goat Cy2-conjugated antibodies (The Jackson Laboratory), except for anti-CD31, which was visualized with a streptavidin-rhodamine complex (BD Biosciences). Immunofluorescent staining was performed on frozen, 5-μm-thick sections. For detection of complement deposition, green and red fluorescence images were merged with the use of Spot software (Diagnostic instruments, Inc.). CD8^+ tumor infiltrates were quantified using ImageJ image analysis software (NIH), positive cells were counted in whole tissue sections and means were calculated. The magnitude of CD11b^+ infiltrates was assessed in a semi-quantitative manner because of the relatively low numbers of infiltrating cells. Scores from 0 to 5 were assigned to sections, according to the relative intensity of the infiltrates. In addition, the distribution of infiltrating cells was analyzed. All analyses were performed in a blinded fashion.

Data set [8] relates to TC-1 tumors. Description: Tumor cell proliferation, apoptosis and angiogenesis in end-point tumor specimens. The class given is in vivo, mouse. Conditions: C5aR antagonist vs PBS. As to the method:
The morphology of tumors and spleens was assessed by light microscopy (Olympus BX 60) of hematoxylin and eosin-stained 5-μm paraffin sections. To assess the number of cells in the S phase of the cell cycle, paraffin sections from tumors and spleens were stained with anti-BrdU. The presence of apoptotic cells in tumor sections was determined by staining for the activated caspase-3 site on cytokeratin 18. Both assays were performed as described previously (Markiewski et al., 2004, J. Immunol. 173:747-754). The microvascular density of engrafted tumors was evaluated by immunofluorescent staining for CD31 expression on endothelial cells in frozen sections. The bound biotinylated anti-CD31 (MEC 13.3-BD Biosciences) was visualized with a streptavidin-rhodamine complex (BD Biosciences). Fluorescence was evaluated by standard fluorescent microscopy (Olympus BX 60 microscope). BrdU incorporation into tumor cells and the microvascular density of tumors were quantified in 5-10 microscopic fields (400× for BrdU and 100× for microvascular density) with the use of ImageJ image analysis software (NIH, Bethesda, Md.), and mean values were calculated. Apoptosis was assessed in a semi-quantitative manner: Scores from 0 to 4 were assigned to sections, depending on the size of the area occupied by apoptotic cells. All analyses were performed in a blinded fashion.

By LD50 is commonly meant the dose at which mortality reaches 50%. Regarding `CC(=O)O[C@H]1C(=O)[C@@]2(C)[C@H]([C@H](OC(=O)c3ccccc3)[C@]3(O)C[C@H](OC(=O)[C@H](O)[C@@H](NC(=O)c4ccccc4)c4ccccc4)C(C)=C1C3(C)C)[C@]1(OC(C)=O)CO[C@@H]1C[C@@H]2O` [Taxol, Paclitaxel], the LD50 in data set [1] is 128 mg/kg. Besides, the “suppressive effect on tumor growth compared with genetic C5aR deficiency” value in data set [2] (wild-type mice treated with Taxol vs C5aR-KO mice treated with PBS, FIG. 3C) is given as “similar”.
Regarding `CCCCCCCCCCCCCC(=O)O[C@@H]1[C@@H](C)[C@@]2(O)[C@@H](C=C(CO)C[C@]3(O)C(=O)C(C)=C[C@@H]23)[C@@H]2C(C)(C)[C@]12OC(C)=O` [PMA, phorbol myristate acetate], in data set [3], the “CD11b upregulation in C5aR-deficient MDSCs” value is reported as “response”. Besides, the “ROS and RNS production in spleen MDSCs of C5aR-deficient mice” value in data set [4] (FIG. 7H, 7I) is reported as “brisk response”. Moreover, in data set [4], the “ROS and RNS production in tumor-associated MDSCs” value is recorded as “lack of an increase”.
In the case of AcF[OPdChaA(d)R], in data set [5] (literature (Finch et al., 1999; Johswich et al., 2006)), the “ability to block C5aR signaling” value was “does not have the ability to block C5aR signaling”.
In the case of “Acetyl-Phe-[Orn-Pro-D-cyclohexylalanine-Trp-Arg] [C5aR antagonist]”, in data set [5] (literature (Kohl et al., 2006; Holland et al.)), the “blockade of C5a-mediated effects in rodent disease models” value is listed as “specifically block C5a-mediated effects”. Further, the “further inhibition of tumor growth in C5aR-deficient mice” value in data set [2] (C5aR-deficient mice, in comparison to mice treated with control peptide) was “did not induce any further inhibition of tumor growth”. Further, the “tumor growth versus control mice treated with PBS” value in data set [2] (wild-type mice, 1 mg/kg s.c. every 2-3 days beginning 1 week after tumor cell injection, FIG. 3A) is recorded as “impaired tumor growth”. Moreover, in data set [2] (wild-type mice, C5aR antagonist 1 mg/kg s.c. vs Taxol 20 mg/kg i.p. once per week, FIG. 3A), the “inhibition of tumor growth compared with Taxol treatment” value is given as “comparable to that achieved by treatment with this anti-cancer therapeutic”. Further, in data set [6], the “arginase-1 expression in tumors” value was “only slightly lower”. The “location of CD11b+ cells in tumors” value in data set [7] (C5aR antagonist-treated mice, in control mice throughout the tumor sections) is “located only at the periphery of the tumors”. In addition, the “number of cells expressing CD11b in tumor sections” value in data set [7] (C5aR antagonist-treated vs PBS-treated mice, FIG. 5F) was “lower”. Moreover, in data set [7] (C5aR antagonist-treated vs control mice, FIG. 4A), the “CD8+ cells infiltrating the tumor tissue” value is “heavily infiltrated by CD8^+ cells”. Moreover, the “tumor cell proliferation and apoptosis, and the extent of angiogenesis” value in data set [8] was “only minimal differences”.

B1: C5a: recombinant mouse C5a anaphylatoxin used to stimulate MDSCs in vitro (protein)
chain: NLHLLRQKIEEQAAKYKHSVPKKCCYDGARVNFYETCEERVARVTIGPLCIRAFNECCTIANKIRKESPHKPVQLGR
For the molecule B1, in data set [3], the “CD11b upregulation in C5aR-deficient MDSCs” value is reported as “lack of CD11b upregulation”. Moreover, in data set [3] (MO-MDSCs, 10 nM C5a, FIG. 6C, 6D), the “expression of CD11b in MO-MDSCs” value is recorded as “did not respond”. Also, the “expression of CD11b in wild-type PMN-MDSCs” value in data set [3] (PMN-MDSCs from spleens and tumors, 10 nM C5a, FIG. 6A, 6B) was “significant increase”. For the same molecule, in data set [4] (1, 10 or 100 nM tested, preliminary experiments), the “C5a concentration giving the highest induction of ROS and RNS production” value is reported as 10 nM. For the same molecule, the “ROS and RNS production in spleen MDSCs of C5aR-deficient mice” value in data set [4] (FIG. 7H, 7I) is “did not respond”. For the same molecule, the “ROS and RNS production in spleen MDSCs of wild-type mice” value in data set [4] (both subpopulations, vs non-stimulated cells from the same mouse, FIG. 7H, 7I) is “increasing their ROS and RNS production”. Also, the “ROS and RNS production in tumor-associated MDSCs” value in data set [4] is recorded as “did not respond”.
